Data taken from PMC4052314, “New Cyclic Cystine Bridged Peptides from the Sponge Suberites waedoensis” (Marine Drugs, 2014).
pIC50: −log10 of the molar value. Positions of bridges follow the written chain, without caps; N, C: chain ends. Residues, ends and D or L forms follow the SMILES beside them.

What was measured:
[1] = tested on: K562 cell-line; assay: Cytotoxicity assay, K562 cell line; format: cell-based; details: literature protocols [21],[22]
Protocol: (§1) The cytotoxicity assays were performed in accord with literature protocols. The Na^+/K^+-ATPase inhibition assay was performed according to the previously described method.

[2] = tested on: A549 cell-line; assay: Cytotoxicity assay, A549 cell line; format: cell-based; details: literature protocols [21],[22]
Protocol: as §1

[3] = tested on: A549 cell-line; details: cited from earlier work
Description: (§2) In our search for bioactive metabolites from sponges found in Korean waters, we recently reported the structural determination of gombamide A, a cyclic thiohexapeptide from Clathria gombawuiensis. […] In our continuing search for bioactive metabolites in sponges, we report here the isolation and structural determinations of chujamides A (1) and B (2), new cyclic cystine bridged peptides from the sponge Suberites waedoensis (Figure 1). These proline- ...

[4] = tested on: Na+/K+-ATPase; details: cited from earlier work
Description: as §2

[5] = tested on: K562 cell-line; details: cited from earlier work
Description: as §2

[6] = target: Na+/K+-ATPase; assay: Na+/K+-ATPase inhibition assay; format: biochemical; details: previously described method [23]
Protocol: as §1

Compound | LC50, cytotoxicity toward K562 [1] [µM] | LC50, cytotoxicity toward A549 [2] [µM] | cytotoxicity against A549 (in words) [3] | inhibitory activity against Na+/K+-ATPase (in words) [4] | cytotoxicity against K562 (in words) [5] | pIC50 [6]
CC[C@H](C)[C@H](NC(=O)CN)C(=O)N[C@H]1CSSC[C@@H](C(=O)O)NC(=O)[C@H]([C@@H](C)CC)NC(=O)[C@@H]2CCCN2C(=O)[C@H](CC(C)C)NC(=O)[C@H](Cc2ccccc2)NC(=O)[C@@H]2CCCN2C(=O)[C@@H]2CCCN2C(=O)[C@H](Cc2ccc(O)cc2)NC(=O)[C@@H]2CCCN2C1=O [Compound 1, chujamide A] (H-GICPYPPFLPIC-OH; disulfide 3-12) | 37.0 | 10.1 |  |  |  | 
gombamide A |  |  | exhibited cytotoxicity | inhibitory activity | exhibited cytotoxicity | 
COc1cccc2c1C(=O)c1c(O)c3c(c(O)c1C2=O)C[C@@](O)(C(=O)CO)C[C@@H]3O[C@H]1C[C@H](N)[C@H](O)[C@H](C)O1 [doxorubicin] | 1.5 | 1.3 |  |  |  | 
CC[C@H](C)[C@H](N)C(=O)N[C@H]1CSSC[C@@H](C(=O)O)NC(=O)[C@H]([C@@H](C)CC)NC(=O)[C@@H]2CCCN2C(=O)[C@H](CC(C)C)NC(=O)[C@H](Cc2ccccc2)NC(=O)[C@@H]2CCCN2C(=O)[C@@H]2CCCN2C(=O)[C@H](Cc2ccc(O)cc2)NC(=O)[C@@H]2CCCN2C1=O [Compound 2, chujamide B] (H-ICPYPPFLPIC-OH; disulfide 2-11) | 55.6 | 26.4 |  |  |  | 4.76
